Assay results reported in patent US20070135338A1, “Human GLP-1 mimetibodies, compositions, methods and uses” (priority 2004, published 2007).

Columns and labels:
normal dogs = experiment: Gastric emptying in normal dogs; format: in vivo, beagle dogs; conditions: lidamidine 0.63 mg/kg subcutaneously 60 minutes before the meal, GLP-1 MMB 0.1 mg/kg intravenously 15 minutes before the meal
Method: GLP-1 MMB delays gastric emptying in normal dogs. A gastric cannula was surgically implanted into female beagle dogs (10-15 kg) under general anesthesia and allowed-to recover for at least 2 weeks. Dogs were fasted for 24 hours after which water was freely available. The gastric cannula was opened and gastric juice and food remnants were removed with 40-50 ml of lukewarm water. Groups of six dogs were dosed subcutaneously with lidamidine, an alpha2 agonist (0.63 mg/kg), 60 minutes before the meal, a positive control for delay of gastric emptying. Dogs dosed with the vehicle control or GLP-1 MMB (0.1 mg/kg) were dosed intravenously in the cephalic vein 15 minutes before the meal. Five minutes before the meal, the gastric cannula was opened to determine the amount of fluid present in stomach for baseline value and fluid was promptly reintroduced. […] Glucose concentrations were evaluated for collected samples and used to determine the absolute amount of glucose remaining in the stomach at each time point. The percentage of glucose retained in the stomach was determined from the starting value and the concentration of glucose at each time point and plotted as a function of time. The time at which 50% of the gastric contents were retained was determined by fitting of the curves to a single exponential.

[1] = administered subcutaneously; cited from earlier work
GLP-1R = target: T1, GLP-1R (Homo sapiens, UniProt P43220); experiment: FACS binding assay, HEK293 cells over-expressing the GLP-1R; conditions: 20 nM, 2 hours at 4° C., flow cytometry
T1 construct: expressed in transfected cells; host or cells: HEK293
T1 sequence (P43220 24-463, species assumed): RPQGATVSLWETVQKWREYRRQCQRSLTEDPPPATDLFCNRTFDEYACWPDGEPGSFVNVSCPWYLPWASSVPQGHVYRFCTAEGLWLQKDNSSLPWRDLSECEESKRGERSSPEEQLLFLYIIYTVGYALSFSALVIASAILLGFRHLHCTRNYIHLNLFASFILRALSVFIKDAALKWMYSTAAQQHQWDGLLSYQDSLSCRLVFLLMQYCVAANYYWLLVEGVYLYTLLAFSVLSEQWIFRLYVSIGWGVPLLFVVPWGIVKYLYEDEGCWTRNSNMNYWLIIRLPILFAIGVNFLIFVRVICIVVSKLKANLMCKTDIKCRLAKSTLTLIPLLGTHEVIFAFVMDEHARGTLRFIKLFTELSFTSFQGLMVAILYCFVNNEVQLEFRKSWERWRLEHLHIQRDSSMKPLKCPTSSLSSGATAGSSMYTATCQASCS
Method: FACS Binding Assay. The activity of GLP-1 mimetibody was tested in an in vitro FACS binding assay. To determine whether the GLP-1 MMB binds the GLP-1R, HEK293 cells (1×10^6 cells) over-expressing the GLP-1R were incubated with GLP-1 MMB (20 nM) for 2 hours at 4° C. The cells were washed, and a fluorescently labeled secondary […] detection antibody (1 μg/mL goat anti-human IgG, Fc gamma specific) was added for 30 minutes at 4° C. The fluorescence intensity of the cells was monitored via flow cytometry.

control HEK293 cells = experiment: FACS binding assay, control HEK293 cells; conditions: flow cytometry
DPP-IV = target: T2, DPP-IV (Homo sapiens, UniProt P27487); experiment: DPP-IV cleavage assay; format: in vitro ADME; conditions: 1.2 nM, DPP-IV 1 μg/mL, room temperature, 0-40 minutes
T2 construct: purchased R&D Systems
T2 sequence (P27487 whole entry, species assumed): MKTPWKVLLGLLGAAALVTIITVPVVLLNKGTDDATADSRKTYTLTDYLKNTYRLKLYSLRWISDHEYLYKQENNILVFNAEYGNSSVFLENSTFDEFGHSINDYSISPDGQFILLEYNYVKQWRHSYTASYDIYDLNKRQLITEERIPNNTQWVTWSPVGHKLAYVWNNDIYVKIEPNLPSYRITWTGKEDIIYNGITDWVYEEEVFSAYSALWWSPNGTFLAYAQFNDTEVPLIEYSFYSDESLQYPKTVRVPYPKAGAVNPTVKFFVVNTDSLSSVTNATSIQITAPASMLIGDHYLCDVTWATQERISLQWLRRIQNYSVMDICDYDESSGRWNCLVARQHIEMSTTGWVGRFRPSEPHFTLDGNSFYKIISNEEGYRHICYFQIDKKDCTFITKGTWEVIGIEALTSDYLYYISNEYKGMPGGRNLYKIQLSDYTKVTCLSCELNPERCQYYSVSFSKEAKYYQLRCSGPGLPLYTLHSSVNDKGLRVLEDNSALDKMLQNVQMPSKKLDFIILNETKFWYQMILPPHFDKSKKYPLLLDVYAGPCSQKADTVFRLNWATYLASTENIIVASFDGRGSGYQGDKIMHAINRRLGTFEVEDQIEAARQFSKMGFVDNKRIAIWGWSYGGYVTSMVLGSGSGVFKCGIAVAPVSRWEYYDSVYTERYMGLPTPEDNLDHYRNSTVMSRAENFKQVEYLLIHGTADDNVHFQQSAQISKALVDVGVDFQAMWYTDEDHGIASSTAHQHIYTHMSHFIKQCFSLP
Method: DPP-IV cleavage assay. Since GLP-1 is rapidly inactivated by DPP-IV, an in vitro assay was established to quantitate intact (i.e. uncleaved) GLP-1 MMB. Briefly, GLP-1 MMB or peptide (1.2 nM) was incubated at room temperature with DPP-IV (1 μg/mL, R&D Systems). After various times (0, 5, 10, 15, 20, 30, 40 minutes), a DPP-IV inhibitor (100 μM, Linco) was added to quench the reaction. The amount of intact GLP-1 MMB or peptide was measured using the GLP-1 Active ELISA (Linco) and the GLP-1 MMB or peptides for the respective standard curves.

[2] = Human serum stability assay; format: in vitro ADME; conditions: 30 nM, 37° C., GLP-1 Active ELISA
Method: Human Serum stability assay. The stability of the GLP-1 MMB in serum was also measured to ensure that other serum proteases were not able to cleave and inactivate the GLP-1 MMB. Briefly, GLP1 peptide or the GLP1 MMB (30 nM) was incubated in human serum at 37° C. After various times, the reactions were quenched with a DPP-IV inhibitor (100 μM, Linco), and the samples were analyzed using the GLP-1 Active ELISA from Linco.

diabetic db/db mice [3] = experiment: Oral glucose tolerance test in diabetic db/db mice, single dose; format: in vivo; conditions: subcutaneous 0.02 to 2 mg/kg, all doses tested, 1.0 mg/g glucose
Method: Effects of GLP-1 MMB during an oral glucose tolerance test in diabetic mice. Eight-week old diabetic db/db mice were fasted for 6 hours prior to a subcutaneous injection of the GLP-1 MMB (0.02 to 2 mg/kg). Following dosing, mice were fasted for an additional six hours and a baseline fasting blood glucose was measured. At t=0, mice were given an oral gavage of 1.0 mg/g glucose, and blood glucose was measured at various times.

diabetic db/db mice [4] = experiment: Fasting blood glucose during chronic dosing to diabetic db/db mice; format: in vivo; conditions: 1 mg/kg subcutaneously daily for six weeks
Method: Effects of GLP-1 MMB on fasting blood glucose during chronic dosing to diabetic mice. Ten-week old diabetic db/db mice were subcutaneously dosed daily with vehicle or GLP-1 MMB (1 mg/kg) for six weeks. Fasting blood glucose was measured twice per week during the course of the study.

diabetic db/db mice [5] = experiment: Oral glucose tolerance test after chronic dosing to diabetic db/db mice; format: in vivo; conditions: 1 mg/kg daily
Method: Effects of GLP-1 MMB on oral glucose tolerance test after chronic dosing to diabetic mice. As in Example 11, ten-week old diabetic db/db mice were dosed daily with vehicle or GLP-1 MMB (1 mg/kg) for six weeks. After 40 days of dosing, the mice were given an oral glucose tolerance test. Briefly, at t=0, mice were given an oral gavage of 1.0 mg/g glucose, and blood glucose was measured at various times.

diabetic db/db mice [6] = experiment: HbA1c after chronic dosing to diabetic db/db mice; format: in vivo; conditions: 1 mg/kg daily for six weeks
Method: Effects of GLP-1 MMB on reducing HbAlc after chronic dosing to diabetic mice. As in Examples 11 and 12, ten-week old diabetic db/db mice were dosed daily with vehicle or GLP-1 MMB (1 mg/kg) for six weeks. Before and after six-weeks of dosing, whole blood samples were taken and analyzed for percent HbA1c.

[7] = test system: normal cynomolgus monkeys; experiment: Oral glucose tolerance test in normal cynomolgus monkeys; format: in vivo; conditions: single dose 1 mg/kg
Method: Effects of GLP-1 MMB on an oral glucose tolerance test in normal cynomolgus monkeys. An oral glucose tolerance test (OGTT) was done in normal cynomolgus monkeys prior to and six days after a single dose of the GLP-1 MMB (1 mg/kg). Briefly, at t=0, monkeys were given an oral gavage of 2.0 mg/g glucose, and blood glucose was measured at various times.

diabetic mice (db/db) = experiment: Insulin staining in islets of diabetic mice (db/db) after a single dose; format: in vivo; conditions: single subcutaneous dose 1.5 mg/kg, four weeks later
Method: Effects of GLP-1 MMB on insulin staining in islets of diabetic mice (db/db) after a single dose. Twelve-week old diabetic mice (db/db) were treated with a single subcutaneous dose of the GLP-1 MMB (1.5 mg/kg), and the pancreata were harvested four weeks later. The pancreata were sectioned and stained for the presence of insulin.

diet induced obese mice = experiment: Oral glucose tolerance test in diet induced obese mice; format: in vivo
Method: GLP-1 MMB lowers blood glucose following an oral glucose tolerance test (OGTT) in diet induced obese mice. To develop a murine model of diet induced obesity, mice were maintained on a high fat diet for at least 27 weeks. Mice became obese and were determined to be diabetic when fasting blood glucose values exceeded 120 mg/dl. To evaluate the effect of GLP-1 MMB therapy on postprandial blood glucose levels, diet induced obese mice were fasted overnight and dosed subcutaneously with 0.02, 0.2, or 2 mg/kg GLP-1 MMB or vehicle control. Six hours after dosing, mice were given a 1.5 mg/g gastric gavage of glucose. Blood glucose levels were determined prior to MMB dosing, at t =0, 15, 30, 60, 90, 120, 150, and 180 minutes using tail vein blood.

db/db mice = experiment: Intraperitoneal glucose tolerance test (IPGTT) in db/db mice; format: in vivo
Method: GLP-1 MMB lowers blood glucose in an intraperitoneal glucose tolerance test (IPGTT) in db/db mice. Male db/db mice of approximately 13-15 weeks of age were randomized into treatment groups of six mice based on fasting blood glucose levels. Mice were dosed with either 0.02 mg/kg or 0.1 mg/kg of GLP- I MMB or 0.1 mg/kg of negative control MMB six hours prior to the glucose tolerance test. Five minutes before the glucose tolerance test, a glucose measurement was taken with a hand held glucometer from tail vein blood. Mice were then dosed intraperitoneally with 1 mg/g of D-glucose and blood glucose levels were monitored at 10 min,20 min,30 min, 60 min, 90 min, 120 min, 150 min, and 180 min. […] Additional groups of animals treated in the same manner were sacrificed for measurement of insulin levels at t=10 minutes.

[8] = test system: patients with type 2 diabetes; conditions: type 2 diabetic patients, cited from earlier work
RINm cells = experiment: Insulin secretion in RINm cells (ELISA); format: cell-based; conditions: peptides 0-5 nM, mimetibodies 5 or 50 nM
Method: GLP-1 MMB causes insulin secretion in RINm cells. To test the effect of GLP-1 MMB in insulin secretion, RINm cells were treated with increasing concentrations of GLP-1 (7-36) peptide (0-5 nM), exendin-4 peptide (0-5 nM), or various GLP-1 mimetibodies (5 or 50 nM) and the amount of insulin secreted was measured via ELISA. All GLP-1 MMBs tested had activities in stimulating insulin secretion in RINm cells (FIG. 6).

CN=C(N)NC(=O)Nc1c(C)cccc1C [lidamidine, reference compound]
time in which 50% of the gastric contents were emptied (normal dogs): 30.60 ± 6.47 min

GLP-1 (7-36) amide: GLP-1 (7-36) amide
time action [1]: about 50 minutes

GLP-1 MMB: GLP-1 mimetibody construct (SEQ ID NO:2): GLP-1 peptide (7-36), flexible linker, J region, IgG1 hinge, CH2 and CH3
binding to HEK293 cells over-expressing the GLP-1R (GLP-1R): binds | binding to control HEK293 cells (control HEK293 cells): does not bind | resistance to cleavage by DPP-IV relative to the GLP-1 peptide (DPP-IV): significantly more resistant | stability in human serum [2]: stable in human serum for 24 hours | glucose excursion during an oral glucose tolerance test (diabetic db/db mice [3]): effective in lowering the glucose excursion | difference in fasting blood glucose, control vs treated, by six weeks (diabetic db/db mice [4]): more than 200 mg/dL | fasting blood glucose by six weeks (diabetic db/db mice [4]): 221 mg/dL | glucose excursion during an oral glucose tolerance test after 40 days of dosing (diabetic db/db mice [5]): effective in lowering the glucose excursion | increase of HbA1C during the six-week period (diabetic db/db mice [6]): 109% | insulin levels in OGTT six days after dosing [7]: significantly increased | blood glucose levels in OGTT six days after dosing ([7]; 2.0 mg/g glucose): significantly reduced | insulin staining in pancreata relative to control animals (diabetic mice (db/db)): significantly more insulin staining | time in which 50% of the gastric contents were emptied (normal dogs): 59.23 ± 14.46 min | glucose areas under the curve between t=0 and t=180 (diet induced obese mice; all doses): significant lowering | fasting blood glucose values at t=0 and all subsequent time points (diet induced obese mice; subcutaneous 0.02, 0.2, or 2 mg/kg, six hours before 1.5 mg/g glucose): dose dependent decrease | amount of insulin released at t=10 minutes (db/db mice; 0.02 mg/kg or 0.1 mg/kg): dose dependent increase | blood glucose levels over the full time course of IPGTT (db/db mice; 0.02 mg/kg or 0.1 mg/kg six hours prior, 1 mg/g D-glucose): significant lower

GLP-1: Glucagon like peptide-1 given as six-week infusion in the clinic (HAEGTFTSDVSSYLEGQAAKEFIAWLVKGRG)
fasting and 8-hour mean plasma glucose levels ([8]; six-week infusion): lowered | β-cell function [8]: improvement in β-cell function

exendin-4 peptide: exendin-4 peptide, comparator in insulin secretion assay
insulin secretion in RINm cells (RINm cells): stimulates insulin release
